Data from patent US9752168B2, “Compositions comprising a polypeptide having cellulolytic enhancing activity and a quinone compound and uses thereof” (priority 2010, dated 2017).
Like-named read-outs stand apart in the source and are kept apart here.

Legend:
[1] = tested on: Penicillium pinophilum GH61A polypeptide; format: biochemical; conditions: P. pinophilum GH61A 0.4 or 2 mg per ml
[2] = target: Aspergillus fumigatus GH61B polypeptide (Aspergillus fumigatus, UniProt Q4WP32); format: biochemical; conditions: A. fumigatus GH61B 0.4 or 2 mg per ml
Chain of Aspergillus fumigatus GH61B polypeptide (Q4WP32 22-250): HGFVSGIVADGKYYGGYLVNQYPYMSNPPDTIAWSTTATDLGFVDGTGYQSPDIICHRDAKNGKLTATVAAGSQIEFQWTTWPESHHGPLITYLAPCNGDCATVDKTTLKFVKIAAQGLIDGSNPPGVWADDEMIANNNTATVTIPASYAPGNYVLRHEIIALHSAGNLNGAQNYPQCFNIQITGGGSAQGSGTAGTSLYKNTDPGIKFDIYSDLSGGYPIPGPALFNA

[3] = tested on: Talaromyces stipitatus GH61 polypeptide; format: biochemical; conditions: T. stipitatus GH61 0.4 or 2 mg per g cellulose
[4] = tested on: Thielavia terrestris GH61E polypeptide; format: biochemical; conditions: AVICEL®, T. terrestris GH61E 0.4 or 2 mg per ml
[5] = tested on: Trichoderma reesei cellulase composition; assay: Hydrolysis of AVICEL® (microcrystalline cellulose) by the T. reesei cellulase composition; conditions: for quinone compound effect(no GH61) (ratio, Equation 2): AVICEL®; for Percent conversion of AVICEL®: no quinone compound, cellulase 4 mg protein/g cellulose, GH61 polypeptide where present 0.4 mg/g cellulose (10% w/w of cellulase)
[6] = target: A. oryzae CEL3A beta-glucosidase (Aspergillus oryzae, UniProt Q2UUD6); format: biochemical; conditions: 96 hours at 50° C.
[7] = tested on: A. oryzae CEL3A beta-glucosidase; format: biochemical; conditions: 96 hours at 50° C.
[8] = tested on: Trichoderma reesei cellulase composition; conditions: milled washed PCS; 5 mM quinone; 1, 3, and 7 days (white bars)
[9] = AVICEL®, 5 mM quinone present, days 3 and 7
[10] = AVICEL®, 5 mM quinone, day 1 and 3
[11] = 5 mM quinone, 1, 3, and 7 days (white bars)
[12] = quinone added to A. oryzae CEL3A beta-glucosidase (10 mg/g cellulose), no GH61A
[13] = quinone with T. aurantiacus GH61A polypeptide (10 mg/g cellulose) and A. oryzae CEL3A beta-glucosidase (10 mg/g cellulose)
[14] = component added alone, beta-glucosidase or GH61A 10 mg protein per g cellulose, adrenochrome […] w/w, 4-tert-butyl-5-methoxy-1,2-benzoquinone 0.15% w/w
[15] = quinone with T. aurantiacus GH61A polypeptide (10 mg/g cellulose), no beta-glucosidase

Molecule: CC1=CC(=O)C=CC1=O [2-methyl-1,4-benzoquinone]
- Day 7 hydrolysis of AVICEL® in the presence of quinone and GH61 polypeptide ([1]; 5 mM quinone, day 7): not significantly impacted
- GH61 effect (ratio, Equation 4) [1, 9]: greater than 1
- quinone compound effect(+GH61) (ratio, Equation 3) [1, 10]: less than 1
- Day 7 hydrolysis of AVICEL® in the presence of quinone and GH61 polypeptide ([2]; 5 mM quinone, day 7): not significantly impacted
- GH61 effect (ratio, Equation 4) [2, 9]: greater than 1
- quinone compound effect(+GH61) (ratio, Equation 3) [2, 10]: less than 1
- Day 7 hydrolysis of AVICEL® in the presence of quinone and GH61 polypeptide ([3]; 5 mM quinone, day 7): not significantly impacted
- GH61 effect (ratio, Equation 4) [3, 9]: greater than 1
- quinone compound effect(+GH61) (ratio, Equation 3) [3, 10]: less than 1
- GH61 effect (ratio, Equation 4) ([4]; 5 mM quinone present, days 3 and 7): greater than 1
- quinone compound effect(+GH61) (ratio, Equation 3) ([4]; 5 mM quinone, day 7): less than 1
- quinone compound effect(no GH61) (ratio, Equation 2) [5, 11]: less than 1

Molecule: COC1=CC(=O)C(=O)C=C1C(C)(C)C [4-tert-butyl-5-methoxy-1,2-benzoquinone]
- conversion of PASC [6, 12]: 1.6±0.1%
- conversion of PASC [6, 13]: 29.9±3.2%
- conversion of PASC [7, 14]: no significant conversion
- conversion of PASC [7, 15]: 0.8±0.6%

Molecule: CN1CC(O)C2=CC(=O)C(=O)C=C21 (stereo not drawn) [adrenochrome, 3-hydroxy-1-methyl-5,6-indolinedione]
- conversion of PASC [6, 12]: 0.3±0.3%
- conversion of PASC [6, 13]: 8.5±2.0%
- conversion of PASC [7, 14]: no significant conversion
- conversion of PASC [7, 15]: 0.1±0.1%

Molecule: O=C1C=CC(=O)c2ccccc21 [1,4-naphthoquinone]
- quinone compound effect(no GH61) (ratio, Equation 2) [8]: less than 1
- quinone compound effect(no GH61) (ratio, Equation 2) [5, 11]: less than 1

Molecule: O=C1c2ccccc2C(=O)c2c(O)ccc(O)c21
- quinone compound effect(no GH61) (ratio, Equation 2) ([5]; 1 mM quinone, 3 days of hydrolysis): 0.932±0.0123
- quinone compound effect(no GH61) (ratio, Equation 2) ([5]; 1 mM quinone, 7 days of hydrolysis): 1.01±0.0120

Molecule: O=C1C=C(O)C(=O)c2ccccc21
- quinone compound effect(no GH61) (ratio, Equation 2) ([5]; 1 mM quinone, FIG. 1E white bars): less than 1

Molecule: O=C1C=CC(=O)C=C1 [1,4-benzoquinone]
- quinone compound effect(no GH61) (ratio, Equation 2) [5, 11]: less than 1

B1: T. stipitatus GH61 polypeptide: GH61 polypeptide having cellulolytic enhancing activity (SEQ ID NO: 164), recombinantly prepared as described in Example 3 (protein, listed as Talaromyces stipitatus)
chain: MPSTKVAALSAVLALASTVAGHGFVQNIVIDGKSYTGYLVNQYPYQSNPPAVIGWSTTATDLGFVDGSGYTNPDIICHKNAKPGQLSAPVAAGGKVELEWTTWPESHHGPVISYLANCNGDCTTVDKTKLEFVKIDQRGLIDDSNPPGTWAADQLIAANNSWTVTIPESIAPGNYVLRHEIIALHSANNATGAQNYPQCINLQITGSGTANPSGTPGEKLYTPTDPGILVNIYQSLSSYVIPGPTLWSGAAAHVVATAAGSATGVASATATPTTLVTAVSSPTGAPSVVTPEAPSVTSFAPVVTVTDVVTVTTVITTTIS
- Percent conversion of AVICEL® ([5]; 1 day): 13.6±0.4%
- Percent conversion of AVICEL® ([5]; 3 days): 27.9±0.2%
- Percent conversion of AVICEL® ([5]; 7 days): 44.7±0.5%

B2: T. reesei GH61B polypeptide: GH61B polypeptide having cellulolytic enhancing activity (SEQ ID NO: 16), recombinantly prepared according to WO 2007/089290 A2 (protein, listed as Trichoderma reesei)
chain: MKSCAILAALGCLAGSVLGHGQVQNFTINGQYNQGFILDYYYQKQNTGHFPNVAGWYAEDLDLGFISPDQYTTPDIVCHKNAAPGAISATAAAGSNIVFQWGPGVWPHPYGPIVTYVVECSGSCTTVNKNNLRWVKIQEAGINYNTQVWAQQDLINQGNKWTVKIPSSLRPGNYVFRHELLAAHGASSANGMQNYPQCVNIAVTGSGTKALPAGTPATQLYKPTDPGILFNPYTTITSYTIPGPALWQG
- Percent conversion of AVICEL® ([5]; 1 day): 13.6±0.4%
- Percent conversion of AVICEL® ([5]; 3 days): 29±2%
- Percent conversion of AVICEL® ([5]; 7 days): 44±2%

B3: T. terrestris GH61E polypeptide: GH61E polypeptide having cellulolytic enhancing activity (SEQ ID NO: 8), recombinantly prepared according to WO 2005/074647 A2 (protein, listed as Thielavia terrestris)
chain: MLANGAIVFLAAALGVSGHYTWPRVNDGADWQQVRKADNWQDNGYVGDVTSPQIRCFQATPSPAPSVLNTTAGSTVTYWANPDVYHPGPVQFYMARVPDGEDINSWNGDGAVWFKVYEDHPTFGAQLTWPSTGKSSFAVPIPPCIKSGYYLLRAEQIGLHVAQSVGGAQFYISCAQLSVTGGGSTEPPNKVAFPGAYSATDPGILINIYYPVPTSYQNPGPAVFSC
- Percent conversion of AVICEL® ([5]; 1 day): 14.7±0.3%
- Percent conversion of AVICEL® ([5]; 3 days): 29.2±0.4%
- Percent conversion of AVICEL® ([5]; 7 days): 49.3±0.5%

B4: A. oryzae CEL3A beta-glucosidase: beta-glucosidase (SEQ ID NO: 112) recombinantly prepared as described in WO 2004/099228 (protein, listed as Aspergillus oryzae)
chain: MKLGWIEVAALAAASVVSAKDDLAYSPPFYPSPWADGQGEWAEVYKRAVDIVSQMTLTEKVNLTTGTGWQLERCVGQTGSVPRLNIPSLCLQDSPLGIRFSDYNSAFPAGVNVAATWDKTLAYLRGQAMGEEFSDKGIDVQLGPAAGPLGAHPDGGRNWEGFSPDPALTGVLFAETIKGIQDAGVIATAKHYIMNEQEHFRQQPEAAGYGFNVSDSLSSNVDDKTMHELYLWPFADAVRAGVGAVMCSYNQINNSYGCENSETLNKLLKAELGFQGFVMSDWTAHHSGVGAALAGLDMSMPGDVTFDSGTSFWGANLTVGVLNGTIPQWRVDDMAVRIMAAYYKVGRDTKYTPPNFSSWTRDEYGFAHNHVSEGAYERVNEFVDVQRDHADLIRRIGAQSTVLLKNKGALPLSRKEKLVALLGEDAGSNSWGANGCDDRGCDNGTLAMAWGSGTANFPYLVTPEQAIQNEVLQGRGNVFAVTDSWALDKIAAAARQASVSLVFVNSDSGEGYLSVDGNEGDRNNITLWKNGDNVVKTAANNCNNTVVIIHSVGPVLIDEWYDHPNVTGILWAGLPGQESGNSIADVLYGRVNPGAKSPFTWGKTRESYGSPLVKDANNGNGAPQSDFTQGVFIDYRHFDKFNETPIYEFGYGLSYTTFELSDLHVQPLNASRYTPTSGMTEAAKNFGEIGDASEYVYPEGLERIHEFIYPWINSTDLKASSDDSNYGWEDSKYIPEGATDGSAQPRLPASGGAGGNPGLYEDLFRVSVKVKNTGNVAGDEVPQLYVSLGGPNEPKVVLRKFERIHLAPSQEAVWTTTLTRRDLANWDVSAQDWTVTPYPKTIYVGNSSRKLPLQASLPKAQ
- conversion of PASC [7, 14]: 1.5±0.3%

B5: P. pinophilum GH61A polypeptide: GH61A polypeptide having cellulolytic enhancing activity (SEQ ID NO: 32), recombinantly prepared according to WO 2011/005867 (protein, listed as Penicillium pinophilum)
chain: MPSTKVAALSAVLALASTVAGHGFVQNIVIDGKSYSGYLVNQFPYESNPPAVIGWATTATDLGFVAPSEYTNADIICHKNATPGALSAPVAAGGTVELQWTTWPDSHHGPVISYLANCNGNCSTVDKTKLDFVKIDQGGLIDDTTPPGTWASDKLIAANNSWTVTIPSTIAPGNYVLRHEIIALHSAGNADGAQNYPQCINLEITGSGTAAPSGTAGEKLYTSTDPGILVNIYQSLSTYVIPGPTLWSGAANGAVATGSATAVATTATASATATPTTLVTSVAPASSTFATAVVTTVAPAVTDVVTVTDVVTVTTVITTTVL
- Percent conversion of AVICEL® ([5]; 1 day): 14.1±0.4%
- Percent conversion of AVICEL® ([5]; 3 days): 28.5±0.5%
- Percent conversion of AVICEL® ([5]; 7 days): 46±2%
